The values below come from ChEMBL document CHEMBL1135201, “Combinatorial library of indinavir analogues: replacement for the aminoindanol at P2'” (Bioorg Med Chem Lett, 2002).

Structures are written as SMILES.

One test deals with MT4. As to the kind of experiment: Ability to inhibit the spread of viral infection in MT-4 human T-lymphoid cells infected with HIV IIIb. The class given is functional.
In test [1] the target is Human immunodeficiency virus type 1 protease (Human immunodeficiency virus 1, UniProt Q72874). As to the kind of experiment: Ability to prevent cleavage of acompound by the HIV protease wild-type enzyme.

The IC50 is the concentration that inhibits the measured activity by half. High values mean weaker potency in that assay, low ones greater potency in that assay. Take `Cc1cc(O)cc(C)c1CNC(=O)[C@H](Cc1ccccc1)C[C@@H](O)CN1CCN(S(=O)(=O)c2ccc3c(c2)CCN3c2ncccn2)C[C@@H]1C(=O)NC(C)(C)C`: in the test with MT4, the ClC95 was 31.3 nM. The same compound gave an IC50 in test [1] of 0.2 nM.

With `CC(C)(C)NC(=O)[C@H]1CN(S(=O)(=O)c2cccs2)CCN1C[C@H](O)C[C@@H](Cc1ccccc1)C(=O)NC1c2ccccc2C[C@H]1O` (stereo partly drawn), the ClC95 in the test with MT4 is reported as 31.3 nM. Also, in test [1], the IC50 is 0.1 nM.

`CSc1nccc(-c2ccc(S(=O)(=O)N3CCN(C[C@H](O)C[C@@H](Cc4ccccc4)C(=O)NCc4c(C)cc(O)cc4C)[C@@H](C(=O)NC(C)(C)C)C3)s2)n1`: in the test with MT4, the ClC95 is 62.5 nM. Besides, the IC50 in test [1] was below 0.2 nM.

The compound `Cc1cc(O)cc(C)c1CNC(=O)[C@H](Cc1ccccc1)C[C@@H](O)CN1CCN(S(=O)(=O)c2cccs2)C[C@@H]1C(=O)NC(C)(C)C` registered a ClC95 in the test on MT4 of 62.5 nM. Moreover, in test [1], the IC50 came out at 0.47 nM.
